Here are results for 3 molecules from ChEMBL document CHEMBL1132397, “Synthesis of 5,8-dimethoxy-3-hydroxy-4-quinolone, a reported inhibitor of HIV RT, and evidence the original proposed structure was incorrect” (Bioorg Med Chem Lett, 1999).

The target in assay [1] is Human immunodeficiency virus type 1 protease (Human immunodeficiency virus 1, UniProt Q72874). The assay can be described thus: Inhibition of RNA-dependent DNA polymerase activity against wild-type HIV-1 RT at a concentration of 100 uM; No inhibition.
For assay [2], the target named is T1, Human immunodeficiency virus type 1 reverse transcriptase (Human immunodeficiency virus 1, UniProt Q72547). The assay can be described thus: Inhibitory activity against reverse transcriptase of HIV-1.
Assay [3] has as its target T1, Human immunodeficiency virus type 1 reverse transcriptase. The experiment in a line: Inhibitory activity against reverse transcriptase of HIV; Inactive.

pKi: −log10 of the molar value.

On to `COc1ccc(OC)c2c(O)c(O)cnc12`, for which, in assay [1], the Ki result is “Not Active”.
A word on the pKi: it is −log10 of the Ki, conventionally taken in molar units. Regarding `Oc1cnc2c(O)ccc(O)c2c1O`, the pKi in assay [2] is 6.31.
`COc1cnc2c(OC)ccc(OC)c2c1O`: the Ki entry in assay [3] is “Not Active”.
